Laboratory results taken from patent US20030186967A1, “Acylresorcinol derivatives are selective vitronectin receptor inhibitors” (American Home Products Corporation, priority 1998, published 2003).
Structures can show the parent of a compound that is named as a salt.

Key:
[1] = target: T1, αVβ3 integrin (Homo sapiens, UniProt P05106+P06756); experiment: Osteopontin-αVβ3 Cell Attachment Assay; assay type: cell-based
T1 construct: αVβ3-expressing cell lines are maintained by standard tissue culture techniques; endogenous in cells; host or cells: αVβ3-expressing cell lines
Procedure: Osteopontin-αVβ3 Cell Attachment Assay The purpose of this assay is to measure the effect of various compounds on the RGD-dependent attachment of cells to osteopontin mediated by the αVβ3 integrin. […] Following the blocking period, wells are aspirated and washed once with D-PBS. Cell Suspension αVβ3-expressing cell lines are maintained by standard tissue culture techniques. […] The cells are pelleted by low-speed centrifugation and washed three times with 0.5 mg/mL trypsin inhibitor in D-PBS (Sigma). The final cell pellet is resuspended in cell suspension media at a concentration of 10^6 cells/mL. Attachment Assay Incubation: […] of diluted test compound is added to osteopontin-coated wells (in triplicate) followed by […] of cell suspension; background cell attachment is determined in uncoated wells. The plate is incubated at 25° C. in a humidified air atmosphere for 1.5 hours. Following the incubation period, the wells are gently aspirated and washed once with D-PBS. Cell Number Detection: The number of cells attached is determined by an MTT dye conversion assay (Promega) according to the manufacturer's instructions. Briefly, MTT dye is diluted in cell suspension media (15:85) and […] is added to each well. […] The assay plates are covered and incubated at 37° C. in a humidified air atmosphere overnight. […] Reference Compounds Various […]

[2] = system: osteoclasts; experiment: Osteoclast Pitting Assay; assay type: cell-based, rat; conditions: Osteoclast Pitting Assay, neonatal rat osteoclasts on bovine cortical bone slices; for IC50: read-out: IC50 (μM) Bone Pitting
Procedure: The assay is conducted as described in Murrills and Dempster (1990). Briefly, 4×4×0.2 mm slices of devitalized bovine cortical bone are numbered, placed in the wells of 96-well culture plates and wetted with 100 ul of Medium 199 containing Hanks salts, 10 mM HEPES, pH 7.0 (Medium 199/Hanks). Bone cell suspensions containing osteoclasts are prepared by mincing the long bones of neonatal rats (Sprague-Dawley, 4-6 days old) in Medium 199/Hanks. 100 uL of the suspension is then plated onto each slice and incubated 30 minutes to allow osteoclasts to adhere. The slices are rinsed to remove non-adherent cells and incubated 24 h in Medium 199 containing Earle's salts, 10 mM HEPES and 0.7 g/L NaHCO3, which equilibrates at pH 6.9 in a 5% CO2 atmosphere. At this pH the adherent osteoclasts excavate an adequate number of resorption pits for assay purposes. Slices are fixed in 2.5% glutaraldehyde and osteoclasts counted following tartrate-resistant acid phosphatase staining. […] All cells are stripped from the slice by sonication on 0.25M NH4OH and the resorption pits formed by the osteoclasts during the experiment stained with toluidine blue. Resorption pits are quantified by manually counting.
The experiments are conducted according to a block design with osteoclasts from each animal exposed to each treatment. Three replicate slices are used per treatment per animal, such that a total of 96 slices are examined for an experiment involving four animals and eight treatments (including control). Several parameters are recorded on a “per slice” basis: number of pits, number of osteoclasts, number of pits per osteoclast, number of fibroblast-like bone cells. SAS or JMP statistical software is used for statistical analysis. […] IC50s are calculated for active compounds using dose-response curves.
Reference Compound: Rat calcitonin.
Osteoclasts are responsible for the bone loss that occurs in the onset of osteoporosis and anti-resorptive drugs directed against the osteoclast are a requirement for patients losing bone.

[3] = system: thyro-parathyroidectomized (TPTX) rats; experiment: PTH-induced hypercalcemia of thyroparathyroidectomized male rats; assay type: in vivo, rat; conditions: Rattus norvegicus
Procedure: Effects of test compounds on PTH-induced hypercalcemia of thyroparathyroidectomized male rats
Male thyro-parathyroidectomized (TPTX) rats (Charles River) were randomly assigned to groups of 7 rats/group. Following a baseline serum calcium determination an Alzet 1003D minipump (Alza Corporation, Palo Alto, Calif.) loaded with 0.3 mg/ml PTH (Bachem, Philadelphia, Pa.) was implanted subcutaneously in each rat. For evaluation of prophylactic effects of a test drug, another minipump with appropriate concentration of the test drug solution was implanted subcutaneously at a site away from PTH minipump. Alternatively, test drugs were administered by oral gavage as a solution or uniform suspension in an appropriate medium depending on the physical properties of the test compound. A group of 7 unimplanted TPTX rats was set aside as a normal control group. Twenty hours after minipump implantation blood was collected from each rat to confirm the presence of hypercalcemia (judged by elevation of serum calcium levels, 2 SD>normal non-implanted level). At various intervals between 0.5 and 24 hours after dosing (usually one to three time points), blood was collected from each rat and the serum evaluated for total calcium. Serum calcium levels were measured using the Nova 7+7 calcium auto analyzer spectrophotometrically using the Sigma test kit (#587A). Test results were determined by the difference in serum calcium between vehicle and treatment group following PTH administration, using a one-way analysis of variance with Dunnett's test or other multiple comparison methods.

[4] = target: T2, Vitronectin receptor αVβ3 (Homo sapiens, UniProt P05106+P06756); experiment: Vitronectin Receptor αVβ3 Binding Assay; conditions: read-out: VnR (IC50μM)
T2 construct: expressed in transfected cells; host or cells: 512P5 cells (plasma membrane preparation)
T2 sequence (P06756 31-889 limits assumed): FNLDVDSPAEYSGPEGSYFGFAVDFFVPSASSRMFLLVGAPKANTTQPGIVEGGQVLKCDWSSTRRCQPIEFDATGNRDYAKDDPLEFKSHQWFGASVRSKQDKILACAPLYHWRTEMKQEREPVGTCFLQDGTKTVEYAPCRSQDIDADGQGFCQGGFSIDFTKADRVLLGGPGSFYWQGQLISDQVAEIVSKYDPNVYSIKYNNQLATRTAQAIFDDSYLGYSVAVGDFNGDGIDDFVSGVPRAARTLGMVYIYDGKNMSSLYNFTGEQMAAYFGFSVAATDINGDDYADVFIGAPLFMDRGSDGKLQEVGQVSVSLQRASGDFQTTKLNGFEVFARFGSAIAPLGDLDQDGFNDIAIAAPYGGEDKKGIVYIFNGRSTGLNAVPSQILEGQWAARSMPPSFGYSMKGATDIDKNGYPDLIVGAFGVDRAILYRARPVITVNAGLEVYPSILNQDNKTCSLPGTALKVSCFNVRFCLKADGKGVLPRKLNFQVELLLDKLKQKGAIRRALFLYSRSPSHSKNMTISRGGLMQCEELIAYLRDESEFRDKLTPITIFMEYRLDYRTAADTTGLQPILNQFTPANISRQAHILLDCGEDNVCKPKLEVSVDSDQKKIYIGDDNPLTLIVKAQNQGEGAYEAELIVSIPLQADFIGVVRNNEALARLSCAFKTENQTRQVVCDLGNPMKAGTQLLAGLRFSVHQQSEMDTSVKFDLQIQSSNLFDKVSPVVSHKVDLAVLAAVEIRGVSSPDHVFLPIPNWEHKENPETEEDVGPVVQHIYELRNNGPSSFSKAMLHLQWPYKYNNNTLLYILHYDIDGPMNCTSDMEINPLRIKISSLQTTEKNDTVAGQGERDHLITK
T2 sequence (P06756 891-1048 partner limits assumed): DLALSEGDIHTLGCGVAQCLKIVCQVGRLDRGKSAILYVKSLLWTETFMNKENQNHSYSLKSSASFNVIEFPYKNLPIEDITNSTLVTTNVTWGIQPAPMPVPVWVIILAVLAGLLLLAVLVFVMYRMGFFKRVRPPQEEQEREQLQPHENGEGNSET
T2 sequence (P05106 27-788): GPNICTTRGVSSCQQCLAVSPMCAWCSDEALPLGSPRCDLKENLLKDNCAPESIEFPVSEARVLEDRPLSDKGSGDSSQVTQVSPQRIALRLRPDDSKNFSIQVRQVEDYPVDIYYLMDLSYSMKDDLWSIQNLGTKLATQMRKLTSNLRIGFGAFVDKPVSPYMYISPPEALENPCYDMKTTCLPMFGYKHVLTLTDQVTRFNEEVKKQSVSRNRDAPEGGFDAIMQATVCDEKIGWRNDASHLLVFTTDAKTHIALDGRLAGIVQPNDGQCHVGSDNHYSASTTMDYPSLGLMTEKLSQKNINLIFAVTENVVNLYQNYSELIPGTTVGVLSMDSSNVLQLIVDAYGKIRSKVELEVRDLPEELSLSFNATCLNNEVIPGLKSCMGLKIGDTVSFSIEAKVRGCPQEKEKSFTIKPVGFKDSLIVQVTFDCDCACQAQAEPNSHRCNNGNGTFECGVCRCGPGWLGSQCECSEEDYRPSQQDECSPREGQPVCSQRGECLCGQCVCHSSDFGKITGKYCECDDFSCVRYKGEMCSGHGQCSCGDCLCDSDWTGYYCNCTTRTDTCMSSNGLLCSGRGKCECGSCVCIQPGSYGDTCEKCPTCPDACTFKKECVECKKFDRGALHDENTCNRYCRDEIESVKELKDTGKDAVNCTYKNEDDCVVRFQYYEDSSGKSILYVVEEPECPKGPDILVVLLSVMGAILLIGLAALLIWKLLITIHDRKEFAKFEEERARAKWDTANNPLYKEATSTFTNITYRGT

T1 sequence (P06756 31-889 limits assumed): as the sequence (P06756 31-889 limits assumed) above
T1 sequence (P06756 891-1048 partner limits assumed): as the sequence (P06756 891-1048 partner limits assumed) above
T1 sequence (P05106 27-788): as the sequence (P05106 27-788) above

| Compound | IC50 [1] | IC50 [2] | inhibition in vivo at 100 mg/kg ([3]; sc) | inhibition in vivo at 100 mg/kg ([3]; po) | inhibition in vivo at 30 mg/kg ([3]; sc, 30 mg/kg) | inhibition in vivo at 75 mg/kg ([3]; sc, 75 mg/kg) | IC50 [4] | IC50 (μM) Bone Pitting [2] | IC50 (μM) Cell [1] | melting point |
| --- | --- | --- | --- | --- | --- | --- | --- | --- | --- | --- |
| O=C(NC[C@H](NS(=O)(=O)c1ccccc1)C(=O)O)c1ccc(OCCNc2ncccn2)cc1O [Example 274] | 18 µM | 0.9 µM | 54% |  |  |  |  |  |  |  |
| O=C(NC[C@H](NS(=O)(=O)c1ccccc1)C(=O)O)c1ccc(OCCNC2=NCCCN2)cc1O [Example 275, 2(S)-Benzenesulfonylamino-3-[2-hydroxy-4-[2-(3,4,5,6-tetrahydro-pyrimidin-2-ylamino)ethoxy]benzoylamino]propionic acid hydrochloride] | 0.002 µM | 0.43 µM | 112% | 39% | 64% | 105% |  |  |  |  |
| CCOC(=O)[C@H](CNC(=O)c1ccc(OCCNC2=NCCCN2)cc1O)NS(=O)(=O)c1ccccc1 [Example 276, hydrochloride] | 0.12 µM | 0.15 µM | 170% |  |  |  |  |  |  |  |
| CCOC(=O)[C@H](CNC(=O)c1ccc(OCCNC2=NCCCN2)cc1O)NC(=O)OCc1ccccc1 [Example 277, 2(S)-Benzyloxycarbonylamino-3-[2-hydroxy-4-[2-(3,4,5,6-tetra-hydropyrimidin-2-ylamino)ethoxy]benzoylamino]propionic acid ethyl ester hydrochloride] | 0.05 µM | 0.4 µM | 86% | 79% |  |  |  |  |  |  |
| N=C(N)NCCOc1ccc(C(=O)NC(CC(=O)O)c2ccccc2)c(O)c1 (stereo not shown) [Example 280, 3-[4-Guanidinoethoxy)-2-hydroxy-benzoylamino]-3-phenylpropanoic acid, hydrochloride] | 78 µM |  |  |  |  |  | 12.3 µM | inactive @ 200 |  |  |
| O=C(N[C@@H](CNC(=O)c1ccc(OCCNc2ncccn2)cc1O)C(=O)O)OCc1ccccc1 [Example 297, 2(S)-Benzyloxycarbonylamino-3-[2-hydroxy-4-[2-(pyrimidin-2-ylamino)ethoxy]-benzoylamino]propionic acid] | 50 µM | 25 µM |  |  |  |  |  |  |  |  |
| CCOC(=O)[C@H](CNC(=O)c1ccc(OCCNc2ncccn2)cc1O)NC(=O)OCc1ccccc1 [Example 299, 2(S)-Benzyloxycarbonylamino-3-[2-hydroxy-4-[2-(pyrimidin-2-ylamino)ethoxy]-benzoylamino]propionic acid ethyl ester hydro-chloride] |  | 1.9 µM |  | 102% |  |  |  |  | inactive @ 100 | 124 to 125 °C |
